According to patent publication US20020055528A1, “Artemisinin analogs having antimalarial, antiproliferative, and antitumor activities and chemoselective methods of making the same” (priority 1999, published 2002):

Key:
Type in all cases: cell-based
60 cell line panel = experiment: NCI 60 cell line screen (SRB), whole panel; settings: panel summary
Procedure: The screening assay is performed on 96-well microtitre plates. Relatively high initial inoculation densities are used, in order to permit measurement of “time-zero” values and to enhance the screen's ability to detect and provide some differentiation between antiproliferative and cytotoxic response parameters. […] The inoculated microtitre plates are pre-incubated for 24 hours at 37θC prior to drug additions. The five drug dilutions tested routinely range from 10^−4 to 10^−8 molar. Higher or lower concentration ranges may be selected on a nonroutine basis if appropriate solubility and/or prior biological information or other screening data so dictate. Duplicate wells are prepared for all concentrations, (concentration is often denoted by placing brackets around a number); “time-zero” and “no drug” controls are also provided for each test. The minimum amount of compound required for a one-time evaluation in the routine screen can be calculated from the knowledge that each test requires a total of approximately 40 ml (0.04 liter) of cell culture medium containing the highest desired drug concentration. Thus, the amount (grams) of sample required (assuming an upper test concentration limit of 10^−4 M) is: molecular weight of compound×[…]. After a 48 hour incubation (37θC) with the test compound, the cells are fixed in situ to the bottoms of the microtitre wells by addition of 50 ul of either 50% trichloroacetic acid (for adherent cell lines) or 80% trichloroacetic acid (for settled cell suspension lines), followed by incubation for 60 minutes at 4θC. The cellular protein in each well is assayed using a sulforhodamine B (SRB) stain procedure. Briefly, after discarding the supernatants, the microtitre plates are washed 5 times with deionized water and air-dried. One hundred microliters of SRB solution (0.4% w/v in 1% acetic acid) is added to each microtitre well and incubated for 10 minutes at room temperature. Unbound SRB is removed by washing 5 times with 1 % acetic acid. The plates are air-dried, the bound stain is solubilized with Tris buffer, and the optical densities read at 515 nm. SRB is a bright pink anionic dye which, in dilute acetic acid, binds electrostatically to the basic amino acids of TCA-fixed cells. Cryopreserved master stocks of all the lines are maintained, and cultures used for screening are replaced from the master stock after no more than twenty passages in the screening laboratory. The cell line panel consists of 60 lines, organized into nine, disease-related subpanels including leukemia, non-small-cell lung cancer, colon, CNS, melanoma, ovarian, renal, prostate and breast cancers.
The response parameters G150 and LC50 are interpolated values representing the concentrations at which the percentage growth (PG) is +50 and −50, respectively:
GI50 is the concentration for which the PG=+50. At this value the increase from time tzero, in the number or mass of cells in the test well is only 50% as much as the corresponding increase in the control well during this period of the experiment, see Table II. A drug effect of this intensity is interpreted as primary growth inhibition.
TGI is the concentration for which PG=0. At this value the number or mass of cells in the well at the end of the experiment equals the number or mass of cells in the well at time tzero, see Table III. A drug effect of this intensity is regarded as cytostasis.
LC50 is the concentration for which the PG=−50. At this value, the number or mass of cells in the test well at the end of the experiment is half that at time tzero, see Table IV. This is interpreted as cytotoxicity.

SNB-19 = experiment: NCI 60 cell line screen (SRB), CNS Cancer; settings: PG=0
NCI/ADR-RES = experiment: NCI 60 cell line screen (SRB), Breast Cancer
786-0 = experiment: NCI 60 cell line screen (SRB), Renal Cancer
IGROVI = experiment: NCI 60 cell line screen (SRB), Ovarian Cancer
ACHN = experiment: NCI 60 cell line screen (SRB), Renal Cancer; settings: PG=0
NCI-H522 = experiment: NCI 60 cell line screen (SRB), Non-Small Cell Lung Cancer
HT29 = experiment: NCI 60 cell line screen (SRB), Colon Cancer
HCT-15 = experiment: NCI 60 cell line screen (SRB), Colon Cancer; settings: PG=0
LOX IMVI = experiment: NCI 60 cell line screen (SRB), Melanoma
MALME-3M = experiment: NCI 60 cell line screen (SRB), Melanoma
RXF 393 = experiment: NCI 60 cell line screen (SRB), Renal Cancer
NCI-H322M = experiment: NCI 60 cell line screen (SRB), Non-Small Cell Lung Cancer; settings: PG=+50
OVCAR-5 = experiment: NCI 60 cell line screen (SRB), Ovarian Cancer
SN12C = experiment: NCI 60 cell line screen (SRB), Renal Cancer
OVCAR-8 = experiment: NCI 60 cell line screen (SRB), Ovarian Cancer
HOP-62 = experiment: NCI 60 cell line screen (SRB), Non-Small Cell Lung Cancer; settings: PG=+50

CC(=O)O[C@H]1C(=O)[C@@]2(C)[C@H]([C@H](OC(=O)c3ccccc3)[C@]3(O)C[C@H](OC(=O)[C@H](O)[C@@H](NC(=O)c4ccccc4)c4ccccc4)C(C)=C1C3(C)C)[C@]1(OC(C)=O)CO[C@@H]1C[C@@H]2O [Paclitaxel, paclitaxel, reference compound]
Range of Log10GI50 (Table IV) (60 cell line panel; Table IV (LC50)): 4.06 | Delta of Log10GI50 (60 cell line panel): −10.15 | Delta of Log10TGI (60 cell line panel): −4.54 | Range of Log10GI50 (60 cell line panel): 8.00 | Range of Log10TGI (60 cell line panel): 7.20 | Log10TGI (SNB-19): >−4.00 log10M | Log10TGI (NCI/ADR-RES; PG=0): >−4.00 log10M | Log10GI50 (NCI/ADR-RES; PG=+50): −8.48 log10M | Log10GI50 (NCI/ADR-RES; Table IV (LC50, PG=−50)): >−4.00 log10M | Log10TGI (786-0; PG=0): >−4.00 log10M | Log10GI50 (786-0; PG=+50): −8.01 log10M | Log10GI50 (786-0; Table IV (LC50, PG=−50)): >−4.00 log10M | Log10TGI (IGROVI; PG=0): −4.19 log10M | Log10GI50 (IGROVI; PG=+50): −8.61 log10M | Log10GI50 (IGROVI; Table IV (LC50, PG=−50)): >−4.00 log10M | Log10TGI (ACHN): −4.90 log10M | Log10TGI (NCI-H522; PG=0): −4.92 log10M | Log10GI50 (NCI-H522; PG=+50): <−13.00 log10M | Log10GI50 (NCI-H522; Table IV (LC50, PG=−50)): >−4.00 log10M | Log10GI50 (HT29; PG=+50): <-13.00 log10M | Log10GI50 (HT29; Table IV (LC50, PG=−50)): −4.39 log10M | Log10TGI (HCT-15): >−4.00 log10M | Log10TGI (LOX IMVI; PG=0): −4.65 log10M | Log10GI50 (LOX IMVI; PG=+50): −11.80 log10M | Log10GI50 (LOX IMVI; Table IV (LC50, PG=−50)): −4.15 log10M | Log10TGI (MALME-3M; PG=0): −4.46 log10M | Log10GI50 (MALME-3M; Table IV (LC50, PG=−50)): −4.11 log10M | Log10TGI (RXF 393; PG=0): >−4.00 log10M | Log10GI50 (RXF 393; PG=+50): −8.32 log10M | Log10GI50 (RXF 393; Table IV (LC50, PG=−50)): >−4.00 log10M | Log10GI50 (NCI-H322M): −10.12 log10M | Log10TGI (OVCAR-5; PG=0): −4.92 log10M | Log10GI50 (OVCAR-5; PG=+50): −9.38 log10M | Log10GI50 (OVCAR-5; Table IV (LC50, PG=−50)): >−4.00 log10M | Log10GI50 (SN12C; SNI2C, PG=+50): −9.53 log10M | Log10GI50 (SN12C; Table IV (LC50, PG=−50), SN12C): >−4.00 log10M | Log10GI50 (OVCAR-8; PG=+50): −10.75 log10M | Log10GI50 (OVCAR-8; Table IV (LC50, PG=−50)): >−4.00 log10M | Log10GI50 (HOP-62): −9.67 log10M
